Key:
primary rat hepatocytes = experiment: Primary rat hepatocyte 3H-thymidine incorporation; format: cell-based; details: subconfluent primary rat hepatocytes, 36 hours, serum-free
Description: As a first indication of BMP-9 effects on confluent, serum starved HepG2 cells, cell proliferation is examined as determined by ^3 H-thymidine incorporation and cell counting. HepG2 cells are plated at […] in 96 well plates and cultured for 48 hours in DME/0.1% FCS to synchronize the cell cycle are treated for 24 hours with or without BMP-9 in the presence of 0.1% FCS. In ^3 H-thymidine incorporation assays, ^3 H-thymidine was included during the last 4 hours of treatment and cellular DNA was collected with a 96 well plate cell harvester. Proliferation was assayed by quantifying ethanol-precipitable ^3 H-thymidine incorporation by liquid scintillation counting. For cell counting assays, cells were trypsinized and counted with a hemacytometer. […] BMP-9 stimulates ^3 H-thymidine incorporation in HepG2 cells approximately five fold.
To determine if this proliferative effect of BMP-9 was unique to the HepG2 liver tumor cell line, primary rat hepatocytes were tested for effects of BMP-9 on ^3 H-thymidine incorporated as shown in FIG. 4.

[1] = tested on: BMP-9 receptors expressed on HepG2 cells; experiment: 125I-BMP-9 binding to HepG2 cells; details: HepG2 cells, 125I-BMP-9 and 250-fold excess of unlabeled ligand
Description: BMP-9 responsiveness in parenchymal liver cells is tested by screening four liver cell lines for their ability to bind iodinated, CHO-derived BMP-9. […] Specific binding of BMP-9 to HepG2 cells is carried out by incubating HepG2 cells grown to confluence in Dulbecco's Modified Eagle's Medium (DME) containing 10% heat-inactivated fetal calf serum (FCS) on gelatinized 6 well plates with 2 ng/ml ^125 I-BMP-9 and increasing concentrations of unlabelled BMP-9 in binding buffer (136.9 mM NaCl, 5.37 mM KCl, 1.26 mM CaCl2, 0.64 mM MgSO4, 0.34 mM Na2 HPO4, 0.44 mM KH2 PO4, 0.49 mM MgCl2, 25 mM HEPES and 0.5% BSA, pH 7.4) for 20 hours at 4° C. to achieve binding equilibrium. This incubation follows a one hour preincubation at 37° C. in binding buffer alone. For crosslinking experiments, the cells were incubated with 500 μM disuccinimidyl suberate for 20 minutes at […] following binding. Cell extracts were analyzed on SDS-PAGE. […] To test the binding specificity of the receptors for BMP-9, HepG2 cells were incubated with ^125 I-BMP-9 and a 250-fold excess of different unlabeled ligands.

[2] = tested on: Articular cartilage explants from calf carpal joints; experiment: Articular cartilage assay (proteoglycan synthesis, sulfate incorporation); format: cell-based; details: 100 ng/ml, calf articular cartilage explants
Description: The effect of BMP-9 on articular cartilage proteoglycan and DNA synthesis is assayed to determine if BMP-9 is involved in the regulation of metabolism of differentiated articular cartilage.
Articular cartilage explants from calf carpal joints are maintained in DMEM with 50 μg/ml ascorbate, 4 mM glutamine and antibiotics for 3 days. Cytokines (rhBMP-2, rhBMP-4, rhBMP-6 and rhBMP-9, IGF-1, bFGF (1-1000 ng/ml), and TGFβ (1-100 ng/ml)) are added to the medium and culture is continued for 3 more days. Medium is changed daily. Twenty-four hours prior to harvest, explants are pulsed with 50 μCi/ml ^35 SO4 or 25 μCi/ml ^3 H-thymidine. Explants are solubilized and separation of free isotope is performed by gel chromatography. Total DNA of each explant is measured by a spectrophotometric assay.

IMCD-3 cells = experiment: IMCD-3 cell condensation and tubulogenesis in collagen matrix; format: cell-based; details: IMCD-3 cells in 3-dimensional collagen gel, 100 ng/ml, 6 days, serum-free
Description: Several cell lines are tested for BMP-9 responsiveness in vitro. Cell proliferation, as indicated by [^3 H]thymidine incorporation, is determined in cell lines derived from kidney and lung. Cell proliferation is determined by measuring [^3 H]thymidine incorporation in subconfluent cells treated for 24 h with or without growth factors. NRK-52E (ATCC CRL 1571), WI-38 (ATCC CCL-75), CCD-11Lu (ATCC CCL-202), CCD-16Lu (ATCC CCL-204), and A-549 (ATCC CCL-185) cell lines are placed at 10^4 cells/well in 96 well plates and assayed for [^3 H]thymidine incorporation as described above. IMCD-3 cells (ATCC #CRL-2123) are cultured in a collagen matrix as described by Barros et al., PNAS USA 92:4412-4416 (1995), and treated with growth factors for 6 days to allow tubule formation.
In contrast, BMP-9 appeared to stimulate proliferation in several fibroblast cell lines derived from lung. […] The effect of rhBMP-9 on tubulogenesis was examined in IMCD-3 cells, another epithelial kidney cell line. […] It is therefore contemplated that both lung and kidney cells are physiological targets for BMP-9.

## EGF: epidermal growth factor (NSDSECPLSHDGYCLHDGVCMYIEALDKYACNCVVGYIGERCQYRDLKWWELR; UniProt P01133 971-1023, looked up)
Primary rat hepatocytes
  3H-thymidine incorporation: markedly

## TGF-β1: transforming growth factor β1
[1]
  crossreactivity of BMP-9 receptors with unlabeled ligand: no crossreactivity
Primary rat hepatocytes
  3H-thymidine incorporation: inhibitory, not stimulatory

## TGFβ
[2]
  proteoglycan synthesis: significantly more active in stimulating proteoglycan synthesis

## rhHGF: recombinant human HGF, inducer of tubulogenesis in IMCD-3 cells
IMCD-3 cells
  cell condensation and tubulogenesis: induced a marked branching tubulogenesis
